According to patent US20230203098A1, “HUMAN TRANSFERRIN RECEPTOR BINDING PEPTIDE” (priority 2020, published 2023):
Like-named read-outs stand apart in the source and are kept apart here. *1 amine or outer side, *2 acyl side, *3 side chain or, on linkers, in order; H or OH if unused. Where a SMILES comes first, the peptide text is derived from it. Bridges are numbered along the chain shown (N, C = ends). [ ]: non-standard residue; d: D form. X3 = NC(=O)Cn1cc(C[C@H](N[*:1])C(=O)[*:2])c2ccccc21; NMePhe(3-Cl) = CN[C@@H](Cc1cccc(Cl)c1)C(=O)O; NMeW = CN[C@@H](Cc1c[nH]c2ccccc12)C(=O)O; NMeY = CN[C@@H](Cc1ccc(O)cc1)C(=O)O; PEG4 = NCCOCCOCCOCCOCCC(=O)O; Tle = CC(C)(C)[C@H](N)C(=O)O; Aib = CC(C)(N)C(=O)O

Target: transferrin receptor (hTfR) (Homo sapiens, UniProt P02786)
Test: Intermolecular interaction evaluation test between transferrin receptor (hTfR) and peptide by surface plasmon resonance (SPR)
Assay type: binding
Procedure, shortened: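 Receptor was Ni-captured and EDC/NHS-fixed on an NTA chip; running buffer HEPES pH 8.0 with NaCl, Tween 20, BSA and 1.0% DMSO.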

[1] = surface plasmon resonance, peptide vs hTfR, read-out: KD value, hTfR binding by SPR (class symbol)

transferrin receptor (hTfR), sequence (P02786 whole entry): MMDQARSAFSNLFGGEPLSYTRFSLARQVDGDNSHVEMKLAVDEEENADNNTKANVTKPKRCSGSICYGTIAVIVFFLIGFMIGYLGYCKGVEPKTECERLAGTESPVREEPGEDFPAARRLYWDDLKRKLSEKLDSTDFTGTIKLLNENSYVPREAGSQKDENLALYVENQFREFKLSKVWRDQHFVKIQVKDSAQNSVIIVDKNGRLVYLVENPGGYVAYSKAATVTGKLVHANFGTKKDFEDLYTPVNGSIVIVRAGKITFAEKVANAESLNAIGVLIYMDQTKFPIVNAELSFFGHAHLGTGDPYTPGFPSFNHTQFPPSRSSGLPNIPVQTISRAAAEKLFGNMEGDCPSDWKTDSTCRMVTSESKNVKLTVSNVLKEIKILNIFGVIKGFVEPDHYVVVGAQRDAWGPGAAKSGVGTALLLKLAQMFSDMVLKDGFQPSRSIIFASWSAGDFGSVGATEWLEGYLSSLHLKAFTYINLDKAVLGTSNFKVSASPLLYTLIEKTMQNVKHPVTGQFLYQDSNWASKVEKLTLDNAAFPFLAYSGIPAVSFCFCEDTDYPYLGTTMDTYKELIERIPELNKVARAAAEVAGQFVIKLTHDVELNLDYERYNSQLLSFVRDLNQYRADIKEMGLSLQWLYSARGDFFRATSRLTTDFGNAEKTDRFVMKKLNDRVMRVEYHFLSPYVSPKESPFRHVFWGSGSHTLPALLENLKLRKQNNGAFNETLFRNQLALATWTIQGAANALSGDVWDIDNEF

CC[C@H](C)[C@@H]1NC(=O)[C@H](Cc2ccc(OC)cc2)NC(=O)[C@H](Cc2ccc(O)cc2)NC(=O)[C@H](CC(N)=O)NC(=O)[C@H](Cc2c[nH]c3ccccc23)N(C)C(=O)[C@H](C(C)C)NC(=O)[C@H](Cc2cccc(Cl)c2)N(C)C(=O)[C@H](C(C)C)NC(=O)[C@H](C)NC(=O)CSC[C@@H](C(=O)NCCOCCOCCOCCOCCC(N)=O)NC(=O)[C@H](Cc2ccc(O)cc2)N(C)C(=O)[C@H](Cc2ccccc2)NC(=O)[C@@H](CCCNC(=N)N)NC(=O)[C@H](CCCNC(=N)N)NC(=O)[C@H](C(C)(C)C)NC1=O [compound 327] ({CH2CO}-AV[NMePhe(3-Cl)]V[NMeW]NYY(Me)I[Tle]R[dR]F[NMeY]C[PEG4]-NH2; thioether N-15)
Kd [1]: 0.001 to 0.1 µM

CC[C@H](C)[C@@H]1NC(=O)[C@H](Cc2ccc(OC)cc2)NC(=O)[C@H](Cc2ccc(O)cc2)NC(=O)[C@H](CC(N)=O)NC(=O)[C@H](Cc2c[nH]c3ccccc23)N(C)C(=O)[C@H](C(C)C)NC(=O)[C@H](Cc2cccc(Cl)c2)N(C)C(=O)[C@H](CCCCNC(=N)N)NC(=O)[C@H](C)NC(=O)CSC[C@@H](C(N)=O)NC(=O)[C@H](Cc2ccc(O)cc2)N(C)C(=O)[C@H](Cc2ccccc2)NC(=O)[C@@H](CCCNC(=N)N)NC(=O)[C@H](CCCNC(=N)N)NC(=O)[C@H]([C@@H](C)CC)NC1=O [compound 242]
Kd (binding to hTfR by SPR, Table 2 peptides, read-out: KD value (SPR) class): 0.001 to 0.1 µM

CC[C@H](C)[C@@H]1NC(=O)[C@H](Cc2ccc(O)cc2)NC(=O)[C@H](Cc2ccc(O)cc2)NC(=O)[C@H](CC(N)=O)NC(=O)[C@H](Cc2c[nH]c3ccccc23)N(C)C(=O)[C@H](C(C)C)NC(=O)[C@H](Cc2ccccc2)N(C)C(=O)[C@H](C(C)C)NC(=O)[C@H](C)NC(=O)CSC[C@@H](C(=O)NCCOCCOCCOCCOCCC(=O)N[C@@H](CCCCNC(=O)C2CCC(CN3C(=O)C=CC3=O)CC2)C(N)=O)NC(=O)[C@H](Cc2ccc(O)cc2)N(C)C(=O)[C@H](Cc2ccc(O)cc2)NC(=O)[C@H](CCCNC(=N)N)NC(=O)[C@H](CCCNC(=N)N)NC(=O)[C@H]([C@@H](C)CC)NC1=O (some centres unmarked) [compound 184]
Kd (hTfR binding by SPR, hTfR No. 894 variant peptides, linker-added peptides and payload conjugates (Table 2), read-out: KD value obtained from the SPR measurement): 0.001 to 0.1 µM

CC[C@H](C)[C@@H]1NC(=O)[C@H](Cc2ccc(O)cc2)NC(=O)[C@H](Cc2ccc(O)cc2)NC(=O)[C@H](CC(N)=O)NC(=O)[C@H](Cc2c[nH]c3ccccc23)NC(=O)[C@H](C(C)C)NC(=O)[C@H](Cc2ccccc2)NC(=O)[C@H](C(C)C)NC(=O)[C@H](C)NC(=O)CSC[C@@H](C(=O)NCCOCCOCCOCCOCCC(=O)N[C@@H](CNC(=O)c2ccc(-c3c4ccc(=O)cc-4oc4cc(O)ccc34)c(C(=O)O)c2)C(N)=O)NC(=O)[C@H](Cc2ccc(O)cc2)N(C)C(=O)[C@H](Cc2ccc(O)cc2)NC(=O)[C@H](CCCNC(=N)N)NC(=O)[C@H](CCCNC(=N)N)NC(=O)[C@H]([C@@H](C)CC)NC1=O [compound 159]
Kd (SPR, linker and payload (FITC, VivoTag) conjugates, read-out: KD): 0.001 to 0.1 µM

CC[C@H](C)[C@@H]1NC(=O)[C@H](Cc2ccc(OC)cc2)NC(=O)[C@H](Cc2ccc(O)cc2)NC(=O)[C@H](CC(N)=O)NC(=O)[C@H](Cc2cn(CC(N)=O)c3ccccc23)NC(=O)[C@H](C(C)C)NC(=O)[C@H](Cc2cccc(Cl)c2)N(C)C(=O)[C@H](C(C)C)NC(=O)[C@H](C)NC(=O)CSC[C@@H](C(N)=O)NC(=O)[C@H](Cc2ccc(O)cc2)N(C)C(=O)[C@H](Cc2ccccc2)NC(=O)[C@@H](CCCNC(=N)N)NC(=O)C(C)(C)NC(=O)[C@H]([C@@H](C)CC)NC1=O [compound 304] ({CH2CO}-AV[NMePhe(3-Cl)]V[X3]NYY(Me)II[Aib][dR]F[NMeY]C-NH2; thioether N-15)
Kd [1]: 0.1 to 1 µM
